Experimental data from EP4671262A1, “NOVEL PEPTIDE EXHIBITING SKIN CONDITION IMPROVEMENT ACTIVITY AND COSMETIC COMPOSITION CONTAINING SAME” (Daebong LS Co., Ltd., priority 2023, dated 2024).

Tests used:
[1] = tested on: B16F10 cells; assay: Melanin synthesis inhibition in α-MSH-stimulated melanocytes; assay type: cell-based, Mouse; details: 72 hours, α-MSH alone = 100
Experimental: Mouse-derived melanocytes (B16F10 cells) were obtained from the American Type Culture Collection (ATCC) and used. The cells were cultured in Dulbecco's Modified Eagle's Medium (DMEM) supplemented with 1% penicillin-streptomycin and 10% fetal bovine serum (FBS) at 37 °C in a 5% CO2 incubator, and subcultured every 3 to 4 days.
B16F10 cells were seeded at 6.0 × 10^4 cells/well in a 6-well plate and cultured for 24 hours at 37 °C in a 5% CO2 incubator. The culture medium was then replaced with phenol red-free, serum-free DMEM, followed by treatment with α-MSH, a melanin production-inducing hormone, and the peptide from the above Preparation Example at concentrations ranging from 1 to 100 µM. The cells were incubated for 72 hours, after which they were collected and lysed with 1 N NaOH in an 80 °C heating block to dissolve intracellular melanin. The absorbance of the resulting solution was measured at 490 nm. The control group was treated with arbutin at a concentration of 500 µg/mL.

[2] = tested on: NHDF cells; assay: Procollagen Type I Peptide (PIP) production, EIA of culture supernatant; assay type: cell-based, Human; details: 24 hours, untreated group = 100
Experimental: Normal Human Dermal Fibroblasts (NHDF) were obtained from Lonza (Lonza Walkersville, Inc.) and cultured in FBM (Fibroblast Basal Medium) supplemented with 0.1% hFGF-B, insulin, GA-1000, and 2% FBS at 37°C in a 5% CO2 incubator. Subculture was performed every 2 to 3 days.
NHDF cells were seeded at 2.0 × 10^4 cells/well in a 24-well plate and incubated for 24 hours at 37°C in a 5% CO2 incubator. After incubation, the culture medium was replaced with serum-free FBM, and the peptide prepared in the above Example was applied at concentrations of 1-100 µM, followed by incubation for 24 hours. The supernatant from each experimental group was collected, and the amount of procollagen released into the medium was measured. The positive control group was treated with ascorbic acid at a concentration of 0.001 v/v%. Measurement of procollagen levels was performed using a Procollagen Type I Peptide (PIP) EIA Kit (Takara Biomedical Co.) according to the manufacturer's protocol. The quantitative results of procollagen type I peptide production following treatment with the peptide of the Example are shown in Table 2 and Fig. 3.

[3] = tested on: HaCaT cells; assay: Hyaluronic acid (HA) production, ELISA of culture supernatant; assay type: cell-based, human; details: 24 hours, untreated group = 100
Experimental: The HaCaT human keratinocyte cell line was obtained from Cell Line Service GmbH (Germany). The cells were cultured in DMEM containing 1% penicillin-streptomycin and 10% fetal bovine serum (FBS) at 37°C in a 5% CO2 incubator, and subculture was performed every 2 to 3 days.
HaCaT cells were seeded at 1.0 × 10^5 cells/well in a 24-well plate and incubated for 24 hours at 37°C in a 5% CO2 incubator. After incubation, the culture medium was replaced with serum-free DMEM, and the peptide prepared in the above Example was applied at concentrations of 50-200 µM, followed by incubation for 24 hours. The supernatant from each experimental group was collected, and the amount of hyaluronic acid (HA) released into the medium was measured. The positive control group was treated with N-acetylglucosamine at a concentration of 10 mM. Measurement of hyaluronic acid production was conducted using a Hyaluronic Acid ELISA Kit (Cusabio Biotechnology Co., Ltd.) following the manufacturer's protocol.

## OC[C@H]1O[C@@H](Oc2ccc(O)cc2)[C@H](O)[C@@H](O)[C@@H]1O [Arbutin, arbutin]
[1]; 500 µg/mL (control) with α-MSH (200 nM)
  Melanin production (%): 59.6±0.8%

## O=C1O[C@H]([C@@H](O)CO)C(O)=C1O [Asc.A, ascorbic acid]
[2]; 10 µg/mL (positive control)
  Procollagen production (%): 159.45±3.8%

## CC(=O)N[C@H]1C(O)O[C@H](CO)[C@@H](O)[C@@H]1O (stereo partly shown) [NAG, N-acetylglucosamine]
[3]; 10 mM (positive control)
  Hyaluronic acid production (%): 125.52±1.18%

## Ala-Ala-Gln-Pro-Arg (AAQPR; printed: Ala-Ala-Gln-Pro-Arg)
[3]; 50 µM
  Hyaluronic acid production (%): 107.14±1.08%
[3]; 100 µM
  Hyaluronic acid production (%): 130.93±0.59%
[3]; 200 µM
  Hyaluronic acid production (%): 136.91±6.87%
[2]; 1 µM
  Procollagen production (%): 105.45±3.15%
[2]; 10 µM
  Procollagen production (%): 129.75±9.74%
[2]; 50 µM
  Procollagen production (%): 132.64±13.74%
[2]; 100 µM
  Procollagen production (%): 134.92±1.3%
[1]; 1 µM with α-MSH (200 nM)
  Melanin production (%): 100.86±4.32%
[1]; 10 µM with α-MSH (200 nM)
  Melanin production (%): 89.62±2.95%
[1]; 100 µM with α-MSH (200 nM)
  Melanin production (%): 79.76±4.18%
